# Laboratory results published in article PMC7721636 (Metabolic Engineering Communications, 2020).
# Target: T1, Prk (Synechocystis sp. PCC 6803, UniProt P37101)
# T1 sequence (P37101 1-332): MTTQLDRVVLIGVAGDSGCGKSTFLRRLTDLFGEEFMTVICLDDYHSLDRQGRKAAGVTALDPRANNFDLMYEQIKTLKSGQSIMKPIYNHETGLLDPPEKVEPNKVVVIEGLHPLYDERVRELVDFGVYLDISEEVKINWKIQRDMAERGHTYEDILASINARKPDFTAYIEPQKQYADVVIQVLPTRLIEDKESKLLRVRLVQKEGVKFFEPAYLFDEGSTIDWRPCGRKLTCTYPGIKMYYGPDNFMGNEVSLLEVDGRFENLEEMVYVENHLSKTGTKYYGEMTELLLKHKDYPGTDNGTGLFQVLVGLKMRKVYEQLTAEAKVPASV
# Test: coupled pyruvate kinase/lactate dehydrogenase assay, NADH at […] nm
# Format: biochemical
smiles,measurement,value
O=C(O)C[C@H](C(=O)O)[C@@H](O)C(=O)O [isocitrate],Ki,1.45 ± 0.13 mM
